Data: PubChem BioAssay AID1189 (EPA DSSTox, 2008)
Active and inactive are the calls of the source.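 Rule for the calls: active = a tumor-causing dose value with its tumor site reported for any sex and species group of a rodent or other animal cancer study; inconclusive = only studies judged inadequate by the national testing program; inactive = tested in at least one study, none positive.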

assay: DSSTox (CPDBAS) Carcinogenic Potency Database Summary SingleCellCall Results; settings: animal chronic carcinogenicity bioassays, CPDB summary call
Description: The Carcinogenic Potency Database (CPDB) is a unique and widely used international resource of the results of over 6500 chronic, long-term animal cancer tests on over 1500 chemical substances. The CPDB provides easy access to the bioassay literature, with qualitative and quantitative analyses of both positive and negative experiments that have been published over the past 50 years in the general literature and by the National Cancer Institute/National Toxicology Program. The CPDB standardizes the diverse literature of cancer bioassays that vary widely in protocol, histopathological examination and nomenclature, and in the published author's choices of what information to provide in their papers. Results are reported in the CPDB for tests in rats, mice, hamsters, dogs, and nonhuman primates, and are based on the most positive result among all experiments for each sex-species. The DSSTox CPDBAS (all species) file incorporates data from the CPDB Summary Tables for the full list of over 1500 chemical substances tested in at least one species. A summary SingleCellCall, based on experimental bioassay results of one or more species, is provided for the entire DSSTox CPDBAS file (see Source URL).
An assignment of categorical carcinogenic activity based on minimal evidence for or against activity. […] Associated TD50 values and tumor site details for the relevant species/sex experiment supporting this overall CPDBAS SingleSiteCall are provided in the full CPDBAS DSSTox file (see Comment) and the corresponding CPDBAS Species Bioassay in PubChem.

| SMILES | outcome |
| --- | --- |
| NC(=S)NNC=O | inactive |
| CCCCCc1cc(O)c2c(c1)OC(C)(C)[C@@H]1CCC(C)=C[C@@H]21 | inactive; active |
| CN(C)C(=S)[S][Bi]([S]C(=S)N(C)C)[S]C(=S)N(C)C | inactive |
| O.O.O.O.O.O.O.O=S(=O)([O-])[O-].[Co+2] | active |
| NC1CCCCC1 | inactive |
| CCOP(=S)(OCC)Oc1cc(C)nc(C(C)C)n1 | inactive; active |
| CCCN(CCC)S(=O)(=O)c1ccc(C(=O)O)cc1 | active |
| O=S(=O)(c1ccc(Cl)cc1)c1ccc(Cl)cc1 | inactive; active |
| O=S(=O)(O)NC1CCCCC1 | active |
| Nc1nc(N)nc(N)n1 | active |
| NC(=S)NNS(=O)(=O)c1ccccc1 | inactive |
| Cl/C=C/CCl | active |
| Cc1ccccc1OCC(O)CNCCn1cc(C)c(=O)[nH]c1=O (stereo unspecified) | inactive |
| CNC(=S)NC | inactive |
| O=C1C(Cl)=C(Cl)C(=O)C(Cl)=C1Cl | inactive |
| Nc1ccc(S(=O)(=O)c2ccc(N)cc2)cc1 | active |
| CCCCCN(N=O)C(=O)OCC | active |
| CCCCC(C)(O)C/C=C/[C@H]1[C@H](O)CC(=O)[C@@H]1CCCCCCC(=O)OC (stereo partly specified) | inactive; active |
| C=CF | active; inactive |
| C=CC(OC(C)=O)c1ccc2c(c1)OCO2 (stereo unspecified) | active |
| CN(C)c1ccc(C(=O)c2ccc(N(C)C)cc2)cc1 | active |
| Cc1c([N+](=O)[O-])c(C)c([N+](=O)[O-])c(C(C)(C)C)c1[N+](=O)[O-] | active |
| CCCCC/C=N/N(C)C=O | active |
| O=S(=O)(O)c1ccc(N=Nc2c(O)ccc3cc(S(=O)(=O)O)ccc23)cc1 | inactive |
| S=C([S-])NCCNC(=S)[S-].[Mn+2] | active |
| O=C(O)c1ccc(N=Nc2ccc(O)c(C(=O)O)c2)cc1 | inactive |

| SMILES | outcome |
| --- | --- |
| O=NN(CCCl)C(=O)N[C@@H]1[C@@H](O)[C@H](O)[C@@H](CO)O[C@@H]1O | active |
| CC(=O)N[C@@H](CS)C(=O)O | inactive |
| [N]=O | inactive |
| O=C(CCl)c1ccccc1 | inactive; active |
| O=NN1CSCSC1 | inactive |
| NNC(N)=O | active; inactive |
| Cc1c(N)nc(C)c2c1[nH]c1ccccc12 | active |
| CCO | active |
| CN(C)N=O | active |
| C=C(C)C(=O)OC | inactive; active |
| O=C(O)c1nn(Cc2ccc(Cl)cc2Cl)c2ccccc12 | inactive |
| NC(CCC(=O)O)C(=O)O (stereo unspecified) | inactive; active |
| Cc1ccc2c(-c3ccccc3)nc(=O)n(C(C)C)c2c1 | inactive |
| C/C=C/c1ccc(OC)cc1 | inactive |
| CNC(=O)O/N=C(\SC)C(=O)N(C)C | inactive |
| CCCCCCCCCCCCCCN(C)N=O | active |
| CCCCNC(=O)N(CCCC)N=O | active |
| O=[O+][O-] | active |
| Cc1c2ccccc2c(C)c2c1ccc1ccccc12 | active; inactive |
| Cc1ccc(N=Nc2c(O)ccc3ccccc23)c([N+](=O)[O-])c1 | active |
| C=CCN(CC(C)=O)N=O | active |
| O=S(=O)([O-])[O-].O=S(=O)([O-])[O-].[Zr+4] | inactive |
| O=C1CC(=O)NC(=O)N1 | inactive |
| COC(=O)[C@H]1[C@H]2C[C@@H]3c4[nH]c5cc(OC)ccc5c4CCN3C[C@H]2C[C@@H](OC(=O)c2cc(OC)c(OC)c(OC)c2)[C@@H]1OC | active |
| Cc1ccc(Cc2cnc(NCCSCc3ccc(CN(C)C)o3)[nH]c2=O)cn1 | active |
| CCCCNC(=O)NS(=O)(=O)c1ccc(C)cc1 | inactive |

| SMILES | outcome |
| --- | --- |
| CC(C)N(C(=O)SC/C(Cl)=C/Cl)C(C)C | active; inactive |
| COc1ccc(N)cc1N | active |
| Cc1cccc(C)c1NC1=NCCCS1 | inactive |
| CN(C)C=O | inactive; active |
| CCSCCC(N)C(=O)O (stereo unspecified) | active |
| CN[C@@H](C)[C@H](O)c1ccccc1 | inactive |
| Nc1cnn([C@@H]2O[C@H](CO)[C@@H](O)[C@H]2O)c(=O)n1 | inactive |
| Nc1ccc2cc3ccc(N)cc3nc2c1 | inactive |
| O=S(=O)(O)CCS | inactive; active |
| C[N+](C)(C)CCO | inactive |
| NCCCCCC(=O)O | inactive; active |
| COC(=O)NN | inactive; active |
| Cc1cc(Cl)ccc1N | active |
| CC(=O)Nc1ccc(N=Nc2cc(C)ccc2O)cc1 | active; inactive |
| Nc1ccc(N(CCO)CCO)cc1 | inactive |
| CN(C)CCN(Cc1cccs1)c1ccccc1 | inactive |
| O=C(NCC1CCCCN1)c1cc(OCC(F)(F)F)ccc1OCC(F)(F)F (stereo unspecified) | inactive |
| COC(=O)C1=C(C)NC(C)=C(C(=O)OCC(C)(C)CN(C)Cc2ccccc2)C1c1cc([N+](=O)[O-])ccc1F (stereo unspecified) | inactive |
| CCNN | active |
| Cc1ccc2c(c1N)C(=O)c1ccccc1C2=O | active |
| Cc1c(N)cccc1N | inactive |
| C=CC#N | active |
| CC(=O)[O][Sn]([c]1ccccc1)([c]1ccccc1)[c]1ccccc1 | inactive; active |
| C/C1=C\C=C(\C(C)C)[C@@H](O)C/C(C)=C/CC/C(C)=C/CC1 | inactive |
| CCCCCCOc1cc(C)c(O)c(C)c1C | inactive; active |
| Cn1c(=O)c2c(ncn2C)n(C)c1=O | inactive |

| SMILES | outcome |
| --- | --- |
| C#CC(OC(N)=O)(c1ccccc1)c1ccc(Cl)cc1 (stereo unspecified) | active; inactive |
| O=P(=O)O | inactive |
| CCCc1cc(=O)[nH]c(=S)[nH]1 | active |
| Cc1cnc(NC(=O)C2=C(O)c3ccccc3S(=O)(=O)N2C)s1 | inactive |
| CCCCCl | inactive |
| C=CCOC(=O)CC(C)C | active |
| O=Cc1ccco1 | active; inactive |
| N#[N+]c1cc(CCN)ccc1[O-] | active |
| CC(F)(Cl)Cl | active |
| S=c1nc[nH]c2nc[nH]c12 | inactive; active |
| O=C1CCO1 | active; inactive |
| COc1ccccc1N | active |
| CCC(Br)(CC)C(=O)NC(N)=O | inactive |
| Cn1c(=O)c2[nH]cnc2n(C)c1=O | inactive; active |
| CCN(CC)C(=S)SSC(=S)N(CC)CC | inactive; active |
| C/C=C/C(=O)Oc1c(C(C)CCCCCC)cc([N+](=O)[O-])cc1[N+](=O)[O-] (stereo unspecified) | inactive |
| CCCCCC(/C=C/C=C\CCCCCCCC(=O)OC)OO (stereo unspecified) | inactive |
| O=C(O)CCC(=O)O | inactive; active |
| O=[N+]([O-])c1ccc(NCCO)c(OCCO)c1 | inactive |
| O=C(O)Cc1c[nH]c2ccccc12 | inactive |
| Nc1ccc2oc3ccccc3c2c1 | active |
| CCCCN(N)CCCC | active |
| CC(C)COC(=O)c1ccc(O)cc1 | inactive |
| NS(=O)(=O)c1cc2c(cc1Cl)NCNS2(=O)=O | inactive; active |
| S=C=NCCCCCCc1ccccc1 | inactive |
| CN(C)[C@@H]1C(=O)C(C(N)=O)=C(O)[C@@]2(O)C(=O)C3=C(O)c4c(O)cccc4[C@@](C)(O)[C@H]3[C@H](O)[C@@H]12 | inactive; active |

| SMILES | outcome |
| --- | --- |
| S=C(SN1CCOCC1)N1CCOCC1 | active |
| CCOP(=S)(OCC)Oc1nc(Cl)c(Cl)cc1Cl | inactive |
| [O]N=O | inactive |
| CCCCCCCCCCCCCCCC(=O)CC(=O)CCCCCCCCCCCCCCC | active |
| O=C(O)CCCC/C=C(\c1ccccc1)c1cccnc1 | inactive; active |
| C[C@@H]1CCC[C@H](C)N1CCCC(O)(c1ccccc1)c1ccccn1 (stereo partly specified) | inactive; active |
| CC(C)(c1ccc(O)cc1)c1ccc(O)cc1 | inactive; active |
| F[B-](F)(F)F | inactive |
| CN(CCCO)N=O | active; inactive |
| Oc1cccc2cccnc12.Oc1cccc2cccnc12.[Cu] | inactive |
| BrC(Br)Br | active; inactive |
| C[C@@H]1C/C=C/C=C/C=C/C=C/[C@H](O[C@@H]2O[C@H](C)[C@@H](O)[C@H](N)[C@@H]2O)C[C@@H]2O[C@](O)(C[C@@H](O)C[C@H]3O[C@@H]3/C=C/C(=O)O1)C[C@H](O)[C@H]2C(=O)O | inactive |
| O=NN1CCCN(N=O)C1 | active |
| CCC(=O)C(CC(C)N(C)C)(c1ccccc1)c1ccccc1 (stereo unspecified) | inactive |
| Cc1nc(N)cc2[nH]c3ccccc3c12 | active |
| NCCCC(N)(C(=O)O)C(F)F (stereo unspecified) | inactive |
| CCN(CC)N=O | active; inactive |
| CCNC(=O)N(CCO)N=O | active |
| CCN(CC)CCOc1ccc(C(O)(Cc2ccc(OC)cc2)c2ccccc2)cc1 (stereo unspecified) | inactive |
| C=CC(O)c1ccc2c(c1)OCO2 (stereo unspecified) | active |
| CC(C)(Oc1ccc(C2CC2(Cl)Cl)cc1)C(=O)O (stereo unspecified) | active |
| C=CC | inactive |
